This note sets out measurements from patent publication US9266870B2 (TAISHO PHARMACEUTICAL CO., LTD., priority 2012, dated 2016).

Structures are written as SMILES. Like-named read-outs stand apart in the source and are kept apart here.

Assay [1] addresses human orexin-2 receptor (hOX2R) (Homo sapiens (Human), UniProt O43614). In words: Measurement of orexin antagonistic activity (intracellular Ca2+ fluorescence, FDSS), hOX2R. The following applies: CHO cells forcibly expressing hOX2R; ligand peptide (modified human orexin-A) 3 nM; maximum fluorescence intensity; read-out: IC50 Value OX2. Type of assay: cell-based. The protocol: (§1) The antagonistic activities of the test compounds on human orexin-1 receptor (hOX1R) and orexin-2 receptor (hOX2R) were measured by modifying from the method described in literature (Toshikatsu Okumura et al., Biochemical and Biophysical Research Communications 280, 976-981, 2001). Chinese hamster ovary (CHO) cells forcibly expressing the hOX1R and hOX2R were seeded into a 96 well Black clear bottom plate (Nunc) at 20,000 cells per well, which were cultured in Ham's F-12 medium containing 0.1 mM MEM non-essential amino acids, 0.5 mg/ml G418, 10% fetal bovine serum (all by Invitrogen) for 16 hours under the conditions of 37° C., 5% CO2. After removing the medium, 100 μL of 0.5 μM Fluo-4AM ester (Dojin) in an assay buffer (25 mM HEPES (Dojin), Hank's balanced salt solution (Invitrogen), 0.1% bovine serum albumin, 2.5 mM probenecid, 200 μg/ml Amaranth (all by Sigma-Aldrich), pH 7.4) was added and the cells were incubated for 60 minutes at 37° C., 5% CO2. After removing the assay buffer containing […] ester, the test compound was dissolved in dimethyl sulfoxide to be 10 mM and diluted with the assay buffer, 150 μL of which was added and incubated for 30 minutes.
(§2) The reaction was measured for the fluorescence intensity of each well every second for 3 minutes using Functional Drug Screening System (FDSS; Hamamatsu Photonics K.K.), and the antagonistic activity was determined using the maximum fluorescence intensity as the indicator of intracellular Ca2+ concentration.

Assay [2] deals with human orexin-1 receptor (hOX1R) (Homo sapiens (Human), UniProt O43613). Put plainly: Measurement of orexin antagonistic activity (intracellular Ca2+ fluorescence, FDSS), hOX1R. Type of assay: cell-based. The settings on record: ligand peptide (modified human orexin-A) 300 pM, maximum fluorescence intensity. The protocol: as §1, with “Chinese” for “The antagonistic activities of the test compounds on human orexin-1 receptor (hOX1R) and orexin-2 receptor (hOX2R) were measured by modifying from the method described in literature (Toshikatsu Okumura et al., Biochemical and Biophysical Research Communications 280, 976-981, 2001). Chinese”
as §2

Where [3] appears, read: CHO cells forcibly expressing hOX1R, read-out: IC50 Value OX1.

Sequence of human orexin-2 receptor (hOX2R) (O43614 whole entry): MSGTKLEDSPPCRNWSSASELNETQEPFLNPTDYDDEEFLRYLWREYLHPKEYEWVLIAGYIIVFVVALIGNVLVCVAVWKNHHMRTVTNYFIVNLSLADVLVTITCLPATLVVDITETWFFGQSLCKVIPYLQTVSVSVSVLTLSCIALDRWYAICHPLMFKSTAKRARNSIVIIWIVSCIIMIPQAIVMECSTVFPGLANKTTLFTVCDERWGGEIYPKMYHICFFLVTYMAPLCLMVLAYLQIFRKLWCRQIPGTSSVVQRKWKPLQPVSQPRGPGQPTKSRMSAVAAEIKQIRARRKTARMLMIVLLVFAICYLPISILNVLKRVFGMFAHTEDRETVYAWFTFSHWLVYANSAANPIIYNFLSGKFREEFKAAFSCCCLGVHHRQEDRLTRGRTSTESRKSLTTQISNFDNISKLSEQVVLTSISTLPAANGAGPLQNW
Sequence of human orexin-1 receptor (hOX1R) (O43613 whole entry): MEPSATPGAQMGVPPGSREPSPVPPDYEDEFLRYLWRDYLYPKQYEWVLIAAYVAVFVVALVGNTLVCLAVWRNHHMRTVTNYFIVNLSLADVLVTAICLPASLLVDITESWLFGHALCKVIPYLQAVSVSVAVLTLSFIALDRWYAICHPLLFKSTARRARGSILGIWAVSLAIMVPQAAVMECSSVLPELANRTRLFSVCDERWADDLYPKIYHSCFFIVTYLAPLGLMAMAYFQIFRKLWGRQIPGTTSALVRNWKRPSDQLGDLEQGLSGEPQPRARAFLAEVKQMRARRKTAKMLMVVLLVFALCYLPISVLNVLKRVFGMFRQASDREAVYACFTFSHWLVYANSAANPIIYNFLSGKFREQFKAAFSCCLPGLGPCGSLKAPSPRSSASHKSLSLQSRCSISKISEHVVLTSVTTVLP

As for `Cc1ccc(-c2ncccn2)c(C(=O)N2CCCOC2Cn2ccc(-c3ccc(F)cn3)n2)c1` (single isomer, unassigned; (-)) [Example 30], the values for the half-maximal inhibitory concentration (IC50) in assay [1] and in assay [2] (setting [3]) were 3 nM and 2.6 nM, respectively.
With `Cc1ccc(-n2nccn2)c(C(=O)N2CCOC2Cn2ccc(-c3ccc(F)cn3)n2)n1` (racemic) [Example 13, (±)-(2-[[3-(5-fluoropyridin-2-yl)-1H-pyrazol-1-yl]methyl]-1,3-oxazolidin-3-yl) [6-methyl-3-(2H-l,2,3-triazol-2-yl)pyridin-2-yl] methanone], the values for the IC50 in assay [1] and in assay [2] (setting [3]) were 251 nM and 121 nM, respectively.
With `Cc1ccc(-n2nccn2)c(C(=O)N2CCCOC2Cc2noc(-c3ccc(F)cc3)n2)c1` (single isomer, unassigned; (-)) [Example 37, (−)-[2-[[5-(4-fluorophenyl)-1,2,4-oxadiazol-3-yl]methyl]-1,3-oxazinan-3-yl] [5-methyl-2-(2H-1,2,3-triazol-2-yl)phenyl] methanone], the IC50 (usually the concentration at which inhibition is half-maximal) stood at 1.7 nM in assay [1] and 1.1 nM in assay [2] (setting [3]).
Taken in the same sequence, the figures for `Cc1ccc(-c2ncccn2)c(C(=O)N2CCCOC2Cc2noc(-c3ccc(F)cn3)n2)c1` (racemic) [Example 33, (±)-(2-[[5-(5-fluoropyridin-2-yl)-1,2,4-oxadiazol-3-yl]methyl]-1,3-oxazinan-3-yl) [5-methyl-2-(pyrimidin-2-yl)phenyl]methanone] were 4540 nM and 3590 nM.
For `Cc1ccc(-c2ncccn2)c(C(=O)N2CCCOC2Cn2cc(-c3ccc(F)cc3)cn2)c1` (single isomer, unassigned; (-)) [Example 43, (−)-[2-[[4-(4-fluorophenyl)-1H-pyrazol-1-yl]methyl]-1,3-oxazinan-3-yl][5-methyl-2-(pyrimidin-2-yl)phenyl]methanone], the IC50 in assay [2] (setting [3]) was 2.6 nM.
In assay [2] (IC50 Value OX1, CHO cells forcibly expressing hOX1R), `Cc1ccc(-n2nccn2)c(C(=O)N2CCCOC2Cn2cc(-c3ccc(F)cc3)cn2)c1` (single isomer, unassigned; (-)) [Example 35, (−)-[2-[[4-(4-fluorophenyl)-1H-pyrazol-1-yl]methyl]-1,3-oxazinan-3-yl][5-methyl-2-(2H-1,2,3-triazol-2-yl)phenyl]methanone] displayed an IC50 of 0.8 nM.
For the compound `Cc1ccc(-n2nccn2)c(C(=O)N2CC(C)COC2Cn2cc(-c3ccc(F)cn3)cn2)c1` (single isomer, unassigned; (-)) [Example 49, (−)-[(2S*,5R*)-2-{[4-(5-Fluoropyridin-2-yl)-1H-pyrazol-1-yl]methyl}-5-methyl-1,3-oxazinan-3-yl][5-methyl-2-(2H-1,2,3-triazol-2-yl)phenyl]methanone], the 50% inhibitory concentration (IC50) in assay [2] (setting [3]) stood at 0.8 nM.
Same read-out and setting: as for `Cc1ccc(-n2nccn2)c(C(=O)N2CCOC2Cn2ccc(-c3ccc(F)cn3)n2)c1` (single isomer, unassigned; (-)) [Example 1, (−)-(2-{[3-(5-Fluoropyridin-2-yl)-1H-pyrazol-1-yl]methyl}-1,3-oxazolidin-3-yl)[5-methyl-2-(2H-1,2,3-triazol-2-yl)phenyl]methanone], the figure is 4.9 nM.
As for `Cc1ccc(-n2nccn2)c(C(=O)N2C[C@H](C)O[C@H]2Cn2cc(-c3ccc(F)cn3)cn2)c1` [Example 5, (−)-[(2S,5S)-2-{[4-(5-Fluoropyridin-2-yl)-1H-pyrazol-1-yl]methyl}-5-methyl-1,3-oxazolidin-3-yl][5-methyl-2-(2H-1,2,3-triazol-2-yl)phenyl]methanone], the IC50 in assay [2] (setting [3]) was 86 nM.
On the same count and under the same terms, as for `Cc1ccc(-n2nccn2)c(C(=O)N2[C@H](Cn3ccc(-c4ccc(F)cn4)n3)OC[C@@H]2C)c1` [Example 9, (−)-[(2S,4S)-2-[[3-(5-fluoropyridin-2-yl)-1H-pyrazol-1-yl]-methyl]-4-methyl-1,3-oxazolidin-3-yl] [5-methyl-2-(2H-1,2,3-triazol-2-yl)phenyl] methanone], the figure is 23.4 nM.
With `O=C(c1cc(F)ccc1-n1nccn1)N1CCOC1Cn1ccc(-c2ccc(F)cn2)n1` (racemic) [Example 12, (±)-(2-[[3-(5-fluoropyridin-2-yl)-1H-pyrazol-1-yl]methyl]-1,3-oxazolidin-3-yl) [5-fluoro-2-(2H-l,2,3-triazol-2-yl)phenyl]methanone], the IC50 in assay [1] stood at 171 nM.
Take `O=C(c1cc(F)ccc1-c1ncccn1)N1CCCOC1Cc1cnn(-c2ccc(F)cn2)c1` (single isomer, unassigned; (-)) [Example 44, (−)-[2-[[1-(5-fluoropyridin-2-yl)-1H-pyrazol-4-yl]methyl]-1,3-oxazinan-3-yl] [5-fluoro-2-(pyrimidin-2-yl)phenyl]methanone]: the IC50 in assay [2] (setting [3]) amounted to 60.4 nM.
On to `Cc1ccc(-n2nccn2)c(C(=O)N2[C@H](C)CO[C@H]2Cn2ccc(-c3ccc(F)cn3)n2)c1` [Example 7, [(2S,4R)-2-[[3-(5-fluoropyridin-2-yl)-1H-pyrazol-1-yl]-methyl]-4-methyl-1,3-oxazolidin-3-yl] [5-methyl-2-(2H-1,2,3-triazol-2-yl)phenyl] methanone], for which, in assay [2] (setting [3]), the IC50 amounted to 7.2 nM.
On to `Cc1ccc(-c2ncccn2)c(C(=O)N2CCOC2Cn2cc(-c3ccc(F)cc3)cn2)c1` (racemic) [Example 24, (±)-(2-[[4-(4-fluorophenyl)-1H-pyrazol-1-yl]methyl]-1,3-oxazolidin-3-yl)[5-methyl-2-(pyrimidin-2-yl)phenyl]methanone], for which the IC50 in assay [1] was found to be 26.7 nM.
Regarding `Cc1ccc(-n2nccn2)c(C(=O)N2CCCOC2Cc2cnn(-c3ccc(F)cn3)c2)c1` (single isomer, unassigned; (-)) [Example 47, (−)-[2-{[1-(5-Fluoropyridin-2-yl)-1H-pyrazol-4-yl]methyl}-1,3-oxazinan-3-yl][5-methyl-2-(2H-1,2,3-triazol-2-yl)phenyl]methanone], the IC50 in assay [2] (setting [3]) was determined as 3.4 nM.
As for `Cc1ccc(-n2nccn2)c(C(=O)N2CCOC2Cn2ccc(-c3ccc(F)cc3)n2)c1` (racemic) [Example 17, (±)-(2-[[3-(4-fluorophenyl)-1H-pyrazol-1-yl]methyl]-1,3-oxazolidin-3-yl)[5-methyl-2-2H-1,2,3-triazol-2-yl) phenyl]methanone], the IC50 in assay [2] (setting [3]) is 5.1 nM.
Still for that read-out and setting: the value for `Cc1ccc(-n2nccn2)c(C(=O)N2C[C@@H](C)O[C@H]2Cn2cc(-c3ccc(F)cn3)cn2)c1` [Example 6, (−)-[(2S,5R)-2-[[4-(5-fluoropyridin-2-yl)-1H-pyrazol-1-yl]methyl]-5-methyl-1,3-oxazolidin-3-yl] [5-methyl-2-(2H-1,2,3-triazol-2-yl)phenyl] methanone] was 27.5 nM; that for `Cc1ccc(-n2nccn2)c(C(=O)N2CCCOC2Cn2cc(-c3ccc(F)cn3)cn2)c1` (single isomer, unassigned; (-)) [Example 4, (−)-(2-[[4-(5-fluoropyridin-2-yl)-1H-pyrazol-1-yl]-methyl]-1,3-oxazinan-3-yl)[5-methyl-2-(2H-1,2,3-triazol-2-yl)phenyl] methanone] was 9.6 nM; that for `Cc1ccc(-n2nccn2)c(C(=O)N2CC(C)COC2Cn2cc(-c3ccc(F)cn3)cn2)c1` (single isomer, unassigned; (-)) [Example 40, (−)-[(2S*,5S*)-2-{[4-(5-Fluoropyridin-2-yl)-1H-pyrazol-1-yl]methyl}-5-methyl-1,3-oxazinan-3-yl][5-methyl-2-(2H-1,2,3-triazol-2-yl)phenyl]methanone] was 8.3 nM.
